Laboratory results taken from patent publication US11001802B2, “Surface of a vessel with polystyrene, nitrogen, oxygen and a static sessile contact angle for attachment and cultivation of cells” (Nunc A/S, priority 2008, dated 2021).

Columns and labels:
human ES cell line H9 [1] = test: Attachment and colony formation of H9 human ES cells on surface modified plates with Rho kinase inhibitors (crystal violet, image analysis); assay type: cell-based
Protocol: Human ES cells of the line H9, at passage 40 were maintained in MEF conditioned media on Nunclon Delta™ plates treated with a 1:30 dilution of growth factor reduced Matrigel™, prior to study. Cells were dissociated from the surface for passage by 1 mg/ml collagenase dissociation or by manual scraping.
These cells were then seeded onto surface modified plates 2, 3, 4 and 13 (12-well format) in the presence of increasing amounts one of the following Rho Kinase inhibitors: Y-27632 (from Sigma, St. Louis, Mo. or EMD, San Diego, Calif.), Fasudil (Sigma), or Hydroxyfasudil (Sigma), and maintained for 3 days, each day replacing the media and compound. At the end of day three, media was removed and the plates were stained with Crystal Violet (0.5% in water) to visualize colonies.
It was attempted to determine the optimal dose of Y-27632 to promote cell binding, by treating cells with a range of plating concentrations of Y-27632 for the first day of culture. After the first day in culture cells were treated on subsequent days with a 10 μM concentration of Y-27632. It was observed that the maximal concentration to stimulate attachment and growth of ES cells was 10 μM (FIG. 12) and that this occurred on surface modified plates 2, 3, 4, 13 and CellBIND™ (Corning, Corning, N.Y.).
The effect of treating the cells continuously with a single dose of Y-27632 on attachment and growth was also tested. The cells were dosed with 0, 1, 4, or 10 μM Y-27632 for 4 days. Some binding was observed on surface modified plates without treatment (0 μM), however the optimal concentration to stimulate attachment and growth of ES cells was 10 μM Y-27632 (Table 4) on surface modified plates 2, 3, 4, 13.

HEK293 cells = test: HEK293 growth over three passages, total cell number (Example 22); assay type: cell-based, human; details: Surface 4 and Nunclon Delta surface; 2.5 μM Y-27632
Protocol: EMEM (500 μl) supplemented with 10% FBS containing 5.0 μM Y-27632 was dispensed in wells of Multidish 24-well plates with Surface 4 or Nunclon Delta™ surface. Another 500 μl of EMEM supplemented with 10% FBS and containing HEK293 cells was added to the wells (2.0×10^4 cells/cm^2), and the cultures were incubated at 37° C. in a humidified atmosphere of 5% CO2 in air for 3 days. Cells were passaged by treatment with Trypsin/EDTA (Lonza, Verviers, Belgium) for two minutes at 37° C., and the total cell number was determined using a NucleoCount Cell Counter (Chemometec A/S, Allered, Denmark). For successive passages, HEK293 cells were seeded at 2.0×10^4 cells/cm^2. The growth of HEK293 cells on Surface 4 and Nunclon Delta™ surface was enhanced by the presence of 2.5 μM Y-27632 (FIG. 34).

H9 human ES cells = test: H9 human ES cell attachment to surface Nunc4 in defined media mTeSR (Example 14); assay type: cell-based; details: 20 micromolar Y-27632
Protocol: Passage 49 H9 human ES cells were passaged twice in the define media, mTeSR™, on Matrigel™-treated plasticware. The cells were then LIBERASE treated and plated onto the surface modified plate Nunc4 in mTeSR™ media. Cells were either plated in media with or without 20 micromolar Y-27632. Wells were also treated with various proteins for 30 minutes prior to seeding cells (no treatment, 0.1% gelatin, 2% BSA, 0.34 mg/ml rat Collagen I, 1:1000 Matrigel™, or 1:5000 Matrigel™) to determine if these proteins could promote human ES cell adhesion in defined media with or without Y-27632 (FIG. 28). […] However, when 20 micromolar Y-27632 was added to define mTeSR™ media, human ES cells adhered to surface Nunc4. Furthermore, this adherence was equivalent in untreated wells and wells treated with 0.1% gelatin, 2% BSA, and 0.34 mg/ml rat Collagen I. There was a modest increase in human ES cell attachment in wells with low concentrations of Matrigel™ (1:1000 and 1:5000 dilutions), however these concentrations of Matrigel™ were insufficient to promote adhesion in the absence of Y-27632.

human ES cell line H9 [2] = test: Adhesion and growth of H9 cells passaged as single cells on surface modified plates (Examples 6, 8); assay type: cell-based
Protocol: Human ES cells of the cell line H9 were grown as single cells according to the methods disclosed in US patent Application LFS5163USPSP, assigned to LifeScan Inc. Cells were passaged by treatment with TrypLE™ Express for five minutes at 37° C., and seeded at 10,000 cells/cm^2 substrate surface.
Initial passaging of H9 human ES cells onto surface modified plates. Adhesion is improved with continuous 10 μM of Y-27632. This is true for the four surface modified plates tested: 2, 3, 4 and 13.
The role of Y-27632 in human ES cell adhesion and cell growth was studied in relation to the surface modified plates. H9 human ES cells were passaged 38 times with collagenase and 50 times with TrypLE™ Express followed by seeding onto Surfaces modified plates 3 or 4 (naïve cells). Alternatively H9 human ES cells passaged 38 times with collagenase and 38 times with Triple Express followed by 9 passages on surface modified plate 3 (Surface 3, acclimated cells), or surface modified plate 4 (Surface 4, acclimated cells). Cells were seeded at a density of 10^4/cm^2 in MEF conditioned media and grown for two days with or without the presence of 10 μM of Y-27632. […] Surface modified plate 4 improved attachment and/or growth of acclimated human ES cells. The cells were followed for a total of 4 days (FIGS. 19 and 20).

[3] = test system: dissociated human embryonic stem cells; details: from approximately 1%; Wanatabe et al.; cited from earlier work

C[C@@H](N)[C@H]1CC[C@H](C(=O)Nc2ccncc2)CC1 [Surface Y-27632, Y-27632]
attachment of ES cell colonies by day three (human ES cell line H9 [1]; H9 on surface modified plates 2, 3, 4 and 13, crystal violet, Y-27632 at 10 μM): Best results
cell proliferation (human ES cell line H9 [1]; Matrigel treated plates with or without 10 μM Y-27632 (FIG. 14)): grow at a similar density as untreated cells
optimal concentration to stimulate attachment and growth of ES cells (human ES cell line H9 [1]; continuous 0, 1, 4 or 10 μM for 4 days, plates 2, 3, 4, 13): 10 µM
maximal concentration to stimulate attachment and growth of ES cells (human ES cell line H9 [1]; range of plating concentrations first day, then 10 μM, plates 2, 3, 4, 13 and CellBIND): 10 µM
growth of HEK293 cells over 3 passages (HEK293 cells): enhanced
adherence of human ES cells in defined mTeSR media (H9 human ES cells): adhered
attachment of naïve single cells (human ES cell line H9 [2]; 10 μM Y-27632, surface modified plates 3 and 4): improves attachment
attachment of acclimated single cells (human ES cell line H9 [2]; 10 μM Y-27632, surface modified plates 3 or 4): did not improve attachment
adhesion of H9 cells passaged with TrypLE Express (human ES cell line H9 [2]; continuous 10 μM Y-27632, surface modified plates 2, 3, 4 and 13): improved
cloning efficiency [3]: approximately 27%
